Earlier results in patent US7208580B2, “Atomic structure of the hemalbumin complex and its use in designing therapeutic compounds” (New Century Pharmaceuticals, Inc., priority 2002, dated 2007).

Biological target: human albumin (Homo sapiens, UniProt P02768)
Sequence (P02768 25-609): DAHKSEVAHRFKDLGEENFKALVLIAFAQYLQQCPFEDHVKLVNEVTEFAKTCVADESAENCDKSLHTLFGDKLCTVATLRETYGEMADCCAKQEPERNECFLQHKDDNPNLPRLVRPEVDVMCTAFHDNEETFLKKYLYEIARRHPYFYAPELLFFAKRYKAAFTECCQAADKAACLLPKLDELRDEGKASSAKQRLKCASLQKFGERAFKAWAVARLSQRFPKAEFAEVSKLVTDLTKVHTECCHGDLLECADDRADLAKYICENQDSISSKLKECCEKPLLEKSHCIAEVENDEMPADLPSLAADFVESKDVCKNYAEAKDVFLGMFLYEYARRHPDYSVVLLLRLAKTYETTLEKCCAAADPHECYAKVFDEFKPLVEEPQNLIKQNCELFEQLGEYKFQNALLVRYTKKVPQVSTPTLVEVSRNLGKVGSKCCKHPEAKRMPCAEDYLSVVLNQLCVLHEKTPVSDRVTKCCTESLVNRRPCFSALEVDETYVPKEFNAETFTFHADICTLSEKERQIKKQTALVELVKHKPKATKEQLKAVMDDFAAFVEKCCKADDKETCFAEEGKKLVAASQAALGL

KA, single high affinity site (hemin binding to human albumin, association constant from reference (9))	Molecule	binding constants for protoporphyrin at the specialized high affinity site (albumins from primates, printed as '1×10^8 Ka')
1.1e+08 M⁻¹	Fe^III Protoporphyrin-IX (Cl) [Hemin]	
	C=CC1=C(C)c2cc3[nH]c(cc4nc(cc5[nH]c(cc1n2)c(C)c5CCC(=O)O)C(CCC(=O)O)=C4C)c(C)c3C=C [protoporphyrin, Fe^III-Protoporphyrin-IX]	~1×10^8
